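Tested at 5 concentrations; 48 h exposure; 96-well plates; endpoints linearly interpolated, else capped at highest concentration. GI50 marks 50% less growth.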 The source made the active and inactive calls. Cut-off read from the data, not from the text of the source: active = GI50 up to about 1.1 µM and inactive = higher.
Key:
Assay in all cases: NCI anticancer screen, dose series, 48 h
[1] = tested on: SK-OV-3
[2] = tested on: MDA-MB-435
[3] = tested on: EKVX
[4] = tested on: DU-145
[5] = tested on: SW-620
[6] = tested on: SK-MEL-5
[7] = tested on: HT-29
[8] = tested on: NCI-H23
[9] = tested on: LOX IMVI
[10] = tested on: K562
[11] = tested on: TK-10
[12] = tested on: SF-295
[13] = tested on: SN12C
[14] = tested on: HOP-62
[15] = tested on: SF-268
[16] = tested on: NCI-H522
[17] = tested on: MDA-MB-231
[18] = tested on: Malme-3M
[19] = tested on: PC-3
[20] = tested on: ACHN
[21] = tested on: A549
[22] = tested on: KM12
[23] = tested on: HCC 2998
[24] = tested on: HL-60
[25] = tested on: HCT-116
[26] = tested on: NCI/ADR-RES
[27] = tested on: UACC-257
[28] = tested on: HOP-92
[29] = tested on: OVCAR-4
[30] = tested on: UO-31
[31] = tested on: COLO 205
[32] = tested on: BT-549
[33] = tested on: CCRF-CEM
[34] = tested on: 786-0
[35] = tested on: NCI-H460
[36] = tested on: RXF 393
[37] = tested on: OVCAR-5
[38] = tested on: SR
[39] = tested on: U-251
[40] = tested on: MCF7
[41] = tested on: SNB-19
[42] = tested on: MDA-N
[43] = tested on: NCI-H226
[44] = tested on: OVCAR-8
[45] = tested on: A498
[46] = tested on: MOLT-4
[47] = tested on: M14
[48] = tested on: RPMI-8226
[49] = tested on: UACC-62
[50] = tested on: T47D
[51] = tested on: SK-MEL-28
[52] = tested on: IGROV-1
[53] = tested on: SK-MEL-2
[54] = tested on: HCT-15
[55] = tested on: Hs-578T
[56] = tested on: CAKI-1
[57] = tested on: SF-539
[58] = tested on: OVCAR-3

Measured: GI50

COc1cc(/C=C/c2nc(NC(=S)Nc3ccccc3)nnc2C)cc(OC)c1OC
inactive: [1] 29.6 µM | [2] 38.4 µM | [3] 22.4 µM | [4] 34 µM | [5] 38.1 µM | [6] 14.7 µM | [7] 14.7 µM | [8] 17.3 µM | [9] 37.2 µM | [10] 29.9 µM | [11] 41.4 µM | [12] 50.1 µM | [13] 39.1 µM | [14] 35.2 µM | [15] 27.4 µM | [16] 11.1 µM | [17] 33 µM | [18] 23.9 µM | [19] 14.3 µM | [20] 18.2 µM | [21] 23.8 µM | [22] 14.5 µM | [23] 12.6 µM | [24] 8.3 µM | [25] 24.7 µM | [26] 28.4 µM | [27] 30.3 µM | [28] 53.7 µM | [29] 18.7 µM | [30] 4.36 µM | [31] 15.5 µM | [32] 25.2 µM | [33] 13.5 µM | [34] 28.3 µM | [35] 15.7 µM | [36] 23.6 µM | [37] 31.6 µM | [38] 12.4 µM | [39] 31 µM | [40] 13.9 µM | [41] 32.5 µM | [42] 48.2 µM | [43] 23.7 µM | [44] 20.8 µM | [45] 27.8 µM | [46] 25 µM | [47] 21.4 µM | [48] 22.7 µM | [49] 14.1 µM | [50] 19.7 µM | [51] > 100 µM | [52] 27.2 µM | [53] 14.5 µM | [55] 17.6 µM | [56] 29.1 µM
11.2 µM: [54]

Clc1nc(-[n+]2ccc(-c3ccncc3)cc2)nc(Nc2ccccc2)c1Cl
inactive: [57] > 100 µM | [1] > 100 µM | [2] > 100 µM | [3] 83.8 µM | [4] > 100 µM | [5] 66.8 µM | [6] > 100 µM | [58] > 100 µM | [7] > 100 µM | [8] > 100 µM | [9] 50.4 µM | [10] 52.1 µM | [11] > 100 µM | [13] > 100 µM | [14] > 100 µM | [15] > 100 µM | [17] > 100 µM | [18] > 100 µM | [19] > 100 µM | [20] > 100 µM | [21] > 100 µM | [22] > 100 µM | [23] > 100 µM | [24] 35.3 µM | [25] > 100 µM | [26] > 100 µM | [27] > 100 µM | [28] > 100 µM | [29] > 100 µM | [30] > 100 µM | [31] > 100 µM | [32] > 100 µM | [33] 27.9 µM | [34] 83.8 µM | [35] > 100 µM | [36] > 100 µM | [37] > 100 µM | [38] 26.2 µM | [39] 70.5 µM | [40] 33.1 µM | [41] > 100 µM | [42] > 100 µM | [43] > 100 µM | [45] > 100 µM | [46] 49.1 µM | [47] > 100 µM | [48] 57.9 µM | [49] > 100 µM | [50] 43.7 µM | [51] > 100 µM | [52] 59.7 µM | [53] > 100 µM | [55] > 100 µM
> 100 µM: [54]

Reference: ChEMBL document CHEMBL1201862, “PubChem BioAssay data set” (2004)
